According to US4031235A, “Insecticidal substituted acetate compounds” (Sumitomo Chemical Company, Limited, priority 1972, dated 1977):
Values after ≈ are worked out from the molar mass of the structure shown.

Experiments:
[1] = system: small brown planthoppers (Delphacodes striatella Fallen); test: Killing effect on small brown planthoppers on sprayed rice plants (Experimental Example 1); format: in vivo; conditions: 300-fold dilute solution, 10 ml/pot; one day after treatment; 1440 min
Protocol: (§1) An emulsifiable concentrate was prepared by blending each of the compounds (1) to (300) of the present invention, xylol and Sorpol SM-200 (trade name; manufactured by Toho Chemical Co., Ltd.) in a proportion of 25%, 50% and 25% (by weight), respectively. 20 to 25 day-old rice plants after seeding were grown in pots and sprayed with each 300-fold dilute solution of the emulsifiable concentrates thus prepared and a 300-fold dilute solution of carbaryl 30% wettable powder diluted with water as a control commercial agent in an amount of 10 ml/pot in each case and then the pots were covered by a cylindrical metal net. 15 small brown planthoppers (Delphacodes striatella Fallen) per group were released in each of the pots treated with carbaryl wettable powder, and compound (1) to (21) and (102) to (110), while 15 green rice leafhopper (Nephotettix bipuntatus cincticeps Uhler) per group were released in each of the pots treated with the carbaryl wettable powder and compounds (22) to (101) and (111) to (300).

[2] = system: green rice leafhopper (Nephotettix bipuntatus cincticeps Uhler); test: Killing effect on green rice leafhopper on sprayed rice plants (Experimental Example 1); format: in vivo; conditions: 300-fold dilute solution, 10 ml/pot; one day after treatment; 1440 min
Protocol: as §1

[3] = system: Larvae of Mosquito (Culex pipiens); test: Insecticidal activity on larvae of mosquito (Experimental Example 2); format: in vivo; conditions: 24 h, read-out: LC50 (50% lethal concentration)
Protocol: as §1
Of the emulsifiable concentrates prepared in Experimental Example 1, each of those prepared from the compounds of Table 1 below was diluted with water to each of test concentrations and a 200 ml portion thereof was added to a 300 ml volume beaker. 30 larvae of mosquito per group were released in each of the beaker and allowed to stand for 1 day. Survival was observed and a LC50 (50% lethal concentration) was determined by calculating a percent killing in each case. As a control, lindane emulsifiable concentrate was used.

Oral toxicity to mice = conditions: mouse, in vivo
[4] = system: adult mosquitoes (Culex pipiens); test: Knock-down of adult mosquitoes by 0.2% oil preparation (Experimental Example 4); format: in vivo; conditions: 0.2% oil preparation, 0.7 ml, 1.5 Kg/cm^2, (70 Cm)^3 glass box, read-out: mosquitoes knocked down
Protocol: (§2) 0.2% oil preparation was prepared from each of the compounds (1), (2), (8), (14), (22), (25), (26), (27), (51), (62), (73), (82), (86), (88), to (90), (92), (94), (96), (111), (119), (121), (165), (175), (180), (184), (185), (195), (200), (201), and (208) and allethrin as a control using deodorized kerosene.

oriental house flies [5] = test: Activity on knock-down against oriental house flies (Experimental Example 5); format: in vivo; conditions: 0.2% oil preparation, 0.7 ml, 1.5 Kg/cm^2, (70 cm)^3 glass box
Protocol: as §2
20 oriental house flies per group were released in a (70 cm)^3 volume glass box and sprayed with each of the oil preparations prepared in Experimental Example 4 from the compounds of Table 3 below and allethrin in an amount of 0.7 ml under a pressure of 1.5 Kg/cm^2.

oriental house flies [6] = test: Potentiation of insecticidal activity by addition of piperonyl butoxide, topical application (Experimental Example 6); format: in vivo; conditions: piperonyl butoxide 5 times active ingredient; acetone solution on thoracic dorsal plate
Protocol: To each of the compounds (22), (51), (62), (63), (82), (86), (125), (150), (160), (176), (177), (178), (184), (185), (191), (195), (200), (201), (204), (208), (210), (212) and (226) was added piperonyl butoxide in an amount of 5 times that of the active ingredient, respectively to prepare an acetone solution having a given concentration. Each of the thus prepared acetone solutions was applied onto a thoracic dosal plate of oriental house flies using a microshringe to observe a synergestic effect on insecticidal activity by piperonyl butoxide.

Row | SMILES | killing effect [1] | killing effect [2] | LC50 [3] [ng/mL] | LD50 (Oral toxicity to mice) [mg/kg] | pest or weed control at 0.2 % [4] [%] | KT50 (50% knock-down time) (oriental house flies [5]) [s] | Potentiation magnification of insecticidal activity by the addition of piperonyl butoxide (oriental house flies [6])
1 | CNC(=O)Oc1cccc2ccccc12 [carbaryl] | more than 90% | more than 90% |  |  |  |  | 
2 | CCC(C(=O)OCc1coc(Cc2ccccc2)c1)c1ccccc1 (stereo not drawn) [compound 1, 5'-Benzyl-3'-furylmethyl-α-ethyl-phenylacetate] |  |  | 1.5 (≈ 4.49 nM) | > 1000 | > 80 | 167 | 
3 | C#CCc1cc(C(C#C)OC(=O)C(CC)c2ccccc2)co1 (stereo not drawn) [compound 8, 5'-Propargyl-α '-ethynyl-3'-furylmethyl-α-ethyl-phenylacetate] |  |  |  | 750 | > 80 | 128 | 
4 | COc1ccc(C(C(=O)OCc2coc(Cc3ccccc3)c2)C(C)C)cc1 (stereo not drawn) [compound 22, 5'-Benzyl-3'-furylmethyl-α-isopropyl-4-methoxyphenylacetate] |  |  |  | 900 | > 80 | 136 | 5.0
5 | COc1ccc(C(C(=O)OCc2cccc(Oc3ccccc3)c2)C(C)C)cc1 (stereo not drawn) [compound 62, 3'-Phenoxybenzyl-α-isopropyl-4-methoxyphenylacetate] |  |  |  | > 1000 | > 80 | 154 | 5.3
6 | COc1ccc(C(C(=O)OCc2ccc(Oc3ccccc3)o2)C(C)C)cc1 (stereo not drawn) [compound 63, 5'-Phenoxyfurfuryl-α-isopropyl-4-methoxyphenylacetate] |  |  |  | > 1000 |  | 140 | 4.8
7 | C=C(C)C(C(=O)OCc1cccc(Oc2ccccc2)c1)c1ccc(OC)cc1 (stereo not drawn) [compound 82, 3'-Phenoxybenzyl-α-isopropenyl-4-methoxyphenylacetate] |  |  |  | > 1000 | > 80 | 132 | 6.7
8 | C=C(C)C(C(=O)OCc1cccc(Oc2ccccc2)c1)c1ccc(Cl)cc1 (stereo not drawn) [compound 119, 3'-Phenoxybenzyl-α-isopropenyl-4-chlorophenylacetate] |  |  | 4.4 (≈ 11.2 nM) | > 1000 | > 80 | 132 | 5.5
9 | C=C(C)C(C(=O)OCc1cccc(Oc2ccccc2)c1)c1ccc(C)cc1 (stereo not drawn) [compound 125, 3'-Phenoxybenzyl-α -isopropenyl-4-methylphenylacetate] |  |  | 3.2 (≈ 8.59 nM) | 1000 |  |  | 6.0
10 | Cc1ccc(C(C(=O)OCc2cc3c(s2)CCCC3)C(C)C)cc1 (centres unmarked) [compound 150] |  |  |  | > 1000 |  |  | 4.2
11 | CCC(C(=O)OCc1cccc(Oc2ccccc2)c1)c1ccc(C)cc1 (centres unmarked) [compound 176] |  |  |  | > 1000 |  |  | 5.2
12 | CCC(C(=O)OCc1coc(Cc2ccccc2)c1)c1ccc(Cl)cc1 (centres unmarked) [compound 184] |  |  | 7.8 (≈ 21.1 nM) | 940 | > 80 | 142 | 5.6
13 | CC(C)C(C(=O)OCc1cccc(Oc2ccccc2)c1)c1ccc(Cl)cc1 (centres unmarked) [compound 206] |  |  | 3.2 (≈ 8.1 nM) | > 1000 |  |  | 5.1
